Laboratory results taken from patent US20080221086A1, “Novel Inhibitors of Glutaminyl Cyclase” (PROBIODRUG AG, priority 2006, published 2008).
pIC50: −log10 of the molar value.

Molecular target: hQC (Homo sapiens, UniProt Q16769)
Test: Fluorometric assay of glutaminyl cyclase (QC) inhibition, H-Gln-βNA or H-Gln-AMC substrate
Assay type: biochemical
Conditions: read-out: IC50
Summary of the method: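 Fluorometric coupled assays at 30° C in Tris/HCl pH 8.0 with EDTA and pyroglutamyl aminopeptidase used either 0.2 mM H-Gln-βNA (320/410 nm) or H-Gln-AMC (380/460 nm), started by QC. Screening used 4 mM inhibitor at substrate 1 KM. Ki came from fitting progress curves to competitive inhibition.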

Chain of hQC (Q16769 29-361): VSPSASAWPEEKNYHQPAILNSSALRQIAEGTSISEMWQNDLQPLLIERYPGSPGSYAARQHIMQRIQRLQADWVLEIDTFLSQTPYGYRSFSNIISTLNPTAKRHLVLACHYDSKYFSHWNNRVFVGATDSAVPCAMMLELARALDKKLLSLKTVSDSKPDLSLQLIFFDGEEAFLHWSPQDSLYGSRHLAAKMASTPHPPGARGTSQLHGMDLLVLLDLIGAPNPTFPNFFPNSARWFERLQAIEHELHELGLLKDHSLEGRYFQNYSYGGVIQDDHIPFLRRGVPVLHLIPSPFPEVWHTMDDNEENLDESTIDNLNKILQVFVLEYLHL

Row | Compound | pIC50
1 | COC(=O)C(C)/N=C1/NC(=S)N(c2ccc3[nH]cnc3c2)C1c1c(F)ccc(Cl)c1F (stereo not shown) [Compound 268, Methyl 2-(1-(1H-benzo[d]imidazol-5-yl)-5-(3-chloro-2,6-difluorophenyl)-2-thioxoimidazolidin-4-ylideneamino)propanoate] | 5.03
2 | C/N=C1/NC(=O)N(c2ccc3[nH]cnc3c2)C1c1ccc(N2CCCC2)cc1 (stereo not shown) [Compound 269, 1-(1H-Benzoimidazol-5-yl)-4-methylimino-5-(4-pyrrolidin-1-yl-phenyl)-imidazolidin-2-one] | 5.51
3 | O=C(C/N=C1/NC(=S)N(c2ccc3[nH]cnc3c2)C1c1ccnc2ccccc12)N1CCC(O)CC1 (stereo not shown) [Compound 270, 2-(1-(1H-benzo[d]imidazol-5-yl)-5-(quinolin-4-yl)-2-thioxoimidazolidin-4-ylideneamino)-1-(4-hydroxypiperidin-1-yl)ethanone] | 5.89
4 | O=C1N/C(=N/Cn2nnc3ccccc32)C(c2ccc3nsnc3c2)N1c1ccc2[nH]cnc2c1 (stereo not shown) [Compound 271, 1-(1H-Benzoimidazol-5-yl)-5-benzo[c][1,2,5]thiadiazol-5-yl-4-benzotriazol-1-ylmethylimino-imidazolidin-2-one] | 6.40
5 | S=C1N/C(=N\C2CCCC2)C(c2ccc(Cl)cc2)N1c1ccc2[nH]cnc2c1 (stereo not shown) [Compound 272, 1-(1H-Benzoimidazol-5-yl)-5-(4-chloro-phenyl)-4-cyclopentylimino-imidazolidine-2-thione] | 5.07
6 | CC1=CC(C)C(C2/C(=N/C3CCc4ccccc43)NC(=S)N2c2ccc3[nH]cnc3c2)CC1 (stereo not shown) [Compound 273, 1-(1H-Benzoimidazol-5-yl)-5-(2,4-dimethyl-cyclohex-3-enyl)-4-indan-1-ylimino-imidazolidine-2-thione] | 5.12
7 | CC1=CC(C)C(C2/C(=N/CCCN3CCCC3=O)NC(=O)N2c2ccc3[nH]cnc3c2)CC1 (stereo not shown) [Compound 275, 1-(1H-Benzoimidazol-5-yl)-5-(2,4-dimethyl-cyclohex-3-enyl)-4-3-(2-oxo-pyrrolidin-1-yl)-propylimino-imidazolidin-2-one] | 5.40
8 | CC1=CC(C)C(C2/C(=N/C(C)C(C)(C)C)NC(=S)N2c2ccc3nc[nH]c3c2)CC1 (stereo not shown) [Compound 276, 1-(1H-Benzoimidazol-5-yl)-5-(2,4-dimethyl-cyclohex-3-enyl)-4-1,2,2-trimethyl-propylimino-imidazolidine-2-thione] | 5.12
9 | Cc1cccc(C2/C(=N\Cn3nnc4ccccc43)NC(=S)N2c2ccc3nc[nH]c3c2)n1 (stereo not shown) [Compound 277, 1-(3H-Benzoimidazol-5-yl)-4-benzotriazol-1-ylmethylimino-5-(6-methyl-pyridin-2-yl)-imidazolidine-2-thione] | 5.40
10 | S=C1N/C(=N\C2CCCc3ccccc32)C(c2ccccc2Cl)N1c1ccc2[nH]cnc2c1 (stereo not shown) [Compound 278, 1-(1H-Benzoimidazol-5-yl)-5-(2-chloro-phenyl)-4-1,2,3,4-tetrahydro-napthalen-1-ylimino-imidazolidine-2-thione] | 5.17
11 | S=C1NC(=NCn2nnc3ccccc32)C(c2ccnc3ccccc23)N1c1ccc2nc[nH]c2c1 (stereo not shown) [Compound 279, 1-(3H-Benzoimidazol-5-yl)-4-benzotriazol-1-ylmethylimino-5-quinolin-4-yl-imidazolidine-2-thione] | 5.66
12 | CN(C)c1ccc(C2/C(=N\Cn3nnc4ccccc43)NC(=S)N2c2ccc3[nH]cnc3c2)cc1 (stereo not shown) [Compound 280, 1-(1H-Benzoimidazol-5-yl)-4-benzotriazol-1-ylmethylimino-5-(4-dimethylamino-phenyl)-imidazolidine-2-thione] | 5.89
13 | O=C(CN=C1NC(=O)N(c2ccc3[nH]cnc3c2)C1c1ccc(Cl)c(F)c1)N1CCC(O)C1 (stereo not shown) [Compound 281, 1-(1H-Benzoimidazol-5-yl)-5-(4-chloro-3-fluoro-phenyl)-4-2-(3-hydroxy-pyrrolidin-1-yl)-2-oxo-ethylimino-imidazolidin-2-one] | 5.17
14 | O=C(C/N=C1/NC(=O)N(c2ccc3[nH]cnc3c2)C1c1ccc2nsnc2c1)N1CCC(O)C1 (stereo not shown) [Compound 282, 1-(1H-Benzoimidazol-5-yl)-5-benzo[c][1,2,5]thiadiazol-5-yl-4-2-(3-hydroxy-pyrrolidin-1-yl)-2-oxo-ethylimino-imidazolidin-2-one] | 5.31
15 | Cc1ccc(C2/C(=N/C3CCCCCC3)NC(=O)N2c2ccc3nc[nH]c3c2)c(C)c1 (stereo not shown) [Compound 283, 1-(3H-Benzoimidazol-5-yl)-4-cycloheptylimino-5-(2,4-dimethyl-phenyl)-imidazolidin-2-one] | 6.40
16 | S=C1N/C(=N/CCCc2ccccc2)C(c2ccc3[nH]ccc3c2)N1c1ccc2[nH]cnc2c1 (stereo not shown) [Compound 284, 1-(1H-Benzoimidazol-5-yl)-5-(1H-indol-5-yl)-4-3-phenyl-propylimino-imidazolidine-2-thione] | 5.89
17 | Cc1cccc(C2/C(=N\Cn3nnc4ccccc43)NC(=S)N2c2ccc3[nH]cnc3c2)c1 (stereo not shown) [Compound 285, 1-(1H-Benzoimidazol-5-yl)-4-benzotriazol-1-ylmethylimino-5-m-tolyl-imidazolidine-2-thione] | 5.89

Row | Compound | pIC50
18 | CC(C)(C)CC(C)(C)/N=C1\CN(c2ccc3nc[nH]c3c2)C(=S)N1 [Compound 286, 1-(3H-Benzoimidazol-5-yl)-4-1,1,3,3-tetramethyl-butylimino-imidazolidine-2-thione] | 5.24
19 | CCc1ccccc1/N=C1\NC(=O)N(c2ccc3[nH]cnc3c2)C1c1ccc2c(c1)OCO2 (stereo not shown) [Compound 287, 5-Benzo1,3dioxol-5-yl-1-(1H-benzoimidazol-5-yl)-4-2-ethyl-phenylimino-imidazolidin-2-one] | 5.51
20 | CCc1ccccc1/N=C1\NC(=S)N(c2ccc3nc[nH]c3c2)C1C1CCC(C)=CC1C (stereo not shown) [Compound 288, 1-(3H-Benzoimidazol-5-yl)-5-(2,4-dimethyl-cyclohex-3-enyl)-4-2-ethyl-phenylimino-imidazolidine-2-thione] | 5.12
21 | O=C1CCCN1CCC/N=C1/NC(=O)N(c2ccc3[nH]cnc3c2)C1c1ccc2[nH]ccc2c1 (stereo not shown) [Compound 289, 1-(1H-benzoimidazol-5-yl)-5-(1H-indol-5-yl)-4-3-(2-oxo-pyrrolidin-1-yl)-propylimino-imidazolidin-2-one] | 8.40
22 | COC(=O)C(C)N=C1NC(=O)N(c2ccc3[nH]cnc3c2)C1c1c(F)cc(Cl)cc1F (stereo not shown) [Compound 290, Methyl 2-(1-(1H-benzo[d]imidazol-5-yl)-5-(4-chloro-2,6-difluorophenyl)-2-oxoimidazolidin-4-ylideneamino)propanoate] | 6.40
23 | S=C1NC(=Nc2ccccc2Br)C(c2ccc3[nH]ccc3c2)N1c1ccc2nc[nH]c2c1 (stereo not shown) [Compound 291, 1-(3H-Benzoimidazol-5-yl)-4-2-bromo-phenylimino-5-(1H-indol-5-yl)-imidazolidine-2-thione] | 5.40
24 | O=C1N/C(=N\c2ccc3c(c2)OCCO3)C(c2ccc3c(c2)OCO3)N1c1ccc2[nH]cnc2c1 (stereo not shown) [Compound 292, 5-Benzo1,3dioxol-5-yl-1-(1H-benzoimidazol-5-yl)-4-2,3-dihydro-benzo1,4dioxin-6-ylimino-imidazolidin-2-one] | 5.89
25 | Cc1ccc(C2/C(=N/C(C)(C)CC(C)(C)C)NC(=O)N2c2ccc3nc[nH]c3c2)cc1 (stereo not shown) [Compound 293, 1-(3H-Benzoimidazol-5-yl)-4,1,1,3,3-tetramethyl-butylimino-5-p-tolyl-imidazolidin-2-one] | 5.24
26 | CC1=CC(C)C(C2C(=NCC(=O)N3CCSCC3)NC(=O)N2c2ccc3[nH]cnc3c2)CC1 (stereo not shown) [Compound 294, 1-(1H-Benzoimidazol-5-yl)-5-(2,4-dimethyl-cyclohex-3-enyl)-4-2-oxo-2-thiomorpholin-4-yl-ethylimino-imidazolidin-2-one] | 5.89
27 | O=C1N/C(=N/CCN2CCOCC2)C(c2cc(Br)cc(Br)c2)N1c1ccc2nc[nH]c2c1 (stereo not shown) [Compound 296, 1-(3H-Benzoimidazol-5-yl)-5-(3,5-dibromo-phenyl)-4-2-morpholin-4-yl-ethylimino-imidazolidin-2-one] | 5.31
28 | O=C1N/C(=N\C2CCCCC2O)C(c2coc3ccccc3c2=O)N1c1ccc2[nH]cnc2c1 (stereo not shown) [Compound 297, 1-(1H-Benzoimidazol-5-yl)-4-2-hydroxy-cyclohexylimino-5-(4-oxo-4H-chromen-3-yl)-imidazolidin-2-one] | 5.03
29 | CC(C)CC(C)N=C1NC(=O)N(c2ccc3[nH]cnc3c2)C1c1ccccc1C(F)(F)F (stereo not shown) [Compound 298, 1-(1H-Benzoimidazol-5-yl)-4-1,3-dimethyl-butylimino-5-(2-trifluoromethyl-phenyl)-imidazolidin-2-one] | 5.17
30 | Cc1cccc(C2/C(=N/c3cc(Cl)ccc3Cl)NC(=S)N2c2ccc3[nH]cnc3c2)c1 (stereo not shown) [Compound 299, 1-(1H-Benzoimidazol-5-yl)-4-2,5-dichloro-phenylimino-5-m-tolyl-imidazolidine-2-thione] | 5.12
31 | CC1=CC(C)C(C2/C(=N/c3ccccc3Br)NC(=S)N2c2ccc3[nH]cnc3c2)CC1 (stereo not shown) [Compound 300, 1-(1H-Benzoimidazol-5-yl)-4-2-bromo-phenylimino-5-(2,4-dimethyl-cyclohex-3-enyl)-imidazolidine-2-thione] | 5.03
32 | O=C1N/C(=N\C2CCCCCC2)C(c2cc(Br)cc(Br)c2)N1c1ccc2nc[nH]c2c1 (stereo not shown) [Compound 301, 1-(3H-Benzoimidazol-5-yl)-4-cycloheptylimino-5-(3,5-dibromo-phenyl)-imidazolidin-2-one] | 8.40
33 | O=C(C/N=C1/NC(=O)N(c2ccc3[nH]cnc3c2)C1c1ccc(Cl)c(F)c1)N1CCCCC1 (stereo not shown) [Compound 302, 1-(1H-Benzoimidazol-5-yl)-5-(4-chloro-3-fluoro-phenyl)-4-2-oxo-2-piperidin-1-yl-ethylimino-imidazolidin-2-one] | 5.51
34 | O=C1N/C(=N/CCCc2ccccc2)C(c2cc(Br)cc(Br)c2)N1c1ccc2[nH]cnc2c1 (stereo not shown) [Compound 303, 1-(1H-Benzoimidazol-5-yl)-5-(3,5-dibromo-phenyl)-4-3-phenyl-propylimino-imidazolidin-2-one] | 8.40
